Patent publication US8754054B2, “Antibacterial compounds, methods of making them, and uses thereof” (Albany Molecular Research, Inc., priority 2010, dated 2014)
Converted amounts (≈) assume the structure as drawn. Each block holds one molecule with its values, some of them ahead of it.

Assays:
E. coli 102 (ATCC 25922) = experiment: Antibacterial activity in vitro, NCCLS dilution method (Table 10); format: cell-based; conditions: Gram −, QC strain
Text: (§1) NCCLS standards for antimicrobial susceptibility testing using the dilution method were followed. See: Performance Standards for Antimicrobial Susceptibility Testing; Fourteenth Informational Supplement. NCCLS Document M100-S14 (ISBN 1-56238-516-X), 2004. NCCLS, 940 West Valley Road, Suite 1400, Wayne, Pa. 19087-1898 USA, 2004; Methods for Dilution Antimicrobial Susceptibility Tests for Bacteria that Grow Aerobically; Approved Standard—Sixth Edition. NCCLS document M7-A6 (IBSBN 1-56238-486-4), NCCLS, 940 West Valley Road, Suite 1400, Wayne, Pa. 19087-1898 USA, 2003, which are hereby incorporated by reference in their entirety.

E. coli 2269 = experiment: as above; format: cell-based; conditions: E. coli 2269, Gram −, ESBL-producer
Text: as §1

E. faecalis 846 = experiment: as above; format: cell-based; conditions: E. faecalis 846, Gram +, VRE
Text: as §1

E. faecium 700221 = experiment: as above; format: cell-based; conditions: E. faecium 700221, Gram +, VRE
Text: as §1

H. influenzae 1742 = experiment: as above; format: cell-based; conditions: H. influenzae 1742, Gram −, ampR
Text: as §1

[1] = system: H. parainfluenzae 2319 (ATCC 7901); experiment: as above; format: cell-based; conditions: Gram −
Text: as §1

K. pneumoniae 2239 = experiment: as above; format: cell-based; conditions: K. pneumoniae 2239, Gram −
Text: as §1

K. pneumoniae 2262 = experiment: as above; format: cell-based; conditions: K. pneumoniae 2262, Gram −, ampC, MDR
Text: as §1

M. catarrhalis 557 = experiment: as above; format: cell-based; conditions: M. catarrhalis 557, Gram −
Text: as §1

[2] = system: P. aeruginosa (ATCC 27853); experiment: as above; format: cell-based; conditions: Gram −
Text: as §1

S. agalactiae 2033 = experiment: as above; format: cell-based; conditions: S. agalactiae 2033, Gram +
Text: as §1

S. aureus (ATCC 29213) = experiment: as above; format: cell-based; conditions: Gram +, MSSA
Text: as §1

S. aureus (ATCC 43300) = experiment: as above; format: cell-based; conditions: Gram +, MRSA
Text: as §1

S. aureus (ATCC 6538) = experiment: as above; format: cell-based; conditions: Gram +, MSSA
Text: as §1

S. aureus 1137 = experiment: as above; format: cell-based; conditions: S. aureus 1137, Gram +, MRSA
Text: as §1

S. aureus 1651 = experiment: as above; format: cell-based; conditions: S. aureus 1651, Gram +, LRSA
Text: as §1

S. aureus 1725 = experiment: as above; format: cell-based; conditions: S. aureus 1725, Gram +, LRSA
Text: as §1

S. aureus 2012 = experiment: as above; format: cell-based; conditions: S. aureus 2012, Gram +, VISA
Text: as §1

S. aureus 2018 = experiment: as above; format: cell-based; conditions: S. aureus 2018, Gram +, VISA
Text: as §1

S. aureus 2144 = experiment: as above; format: cell-based; conditions: S. aureus 2144, Gram +, CA, USA 300 Strain
Text: as §1

S. epidermidis 1452 = experiment: as above; format: cell-based; conditions: S. epidermidis 1452, Gram +, MRSE
Text: as §1

S. epidermidis 1597 = experiment: as above; format: cell-based; conditions: S. epidermidis 1597, Gram +, MSSE
Text: as §1

S. marcescens 1635 = experiment: as above; format: cell-based; conditions: S. marcescens 1635, Gram −
Text: as §1

S. pneumoniae 376 = experiment: as above; format: cell-based; conditions: S. pneumoniae 376, Gram +, Quin-R
Text: as §1

S. pneumoniae 933 = experiment: as above; format: cell-based; conditions: S. pneumoniae 933, Gram +, MDR
Text: as §1

S. pneumoniae 940 = experiment: as above; format: cell-based; conditions: S. pneumoniae 940, Gram +, PRSP
Text: as §1

S. pneumoniae 975 = experiment: as above; format: cell-based; conditions: S. pneumoniae 975, Gram +, PSSP
Text: as §1

S. pyogenes 723 = experiment: as above; format: cell-based; conditions: S. pyogenes 723, Gram +
Text: as §1

S. saprophyticus 495 = experiment: as above; format: cell-based; conditions: S. saprophyticus 495, Gram +
Text: as §1

MRSA 43300 = experiment: Antibacterial activity, NCCLS dilution method (Table 9); format: cell-based, S. aureus; conditions: MRSA 43300, dilution method, labels marked a tested as a mixture of diastereomers; for MIC: Staphylococcus aureus, MRSA, read-out: MRSA 43300 MIC
Procedure, shortened: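 MIC determined by dilution susceptibility testing following NCCLS standards M7-A6 and M100-S14 for aerobically growing bacteria.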

Molecule: COC(=O)c1c(C)cc2c(c1O)[C@]1(O)C(=O)c3cc4c(c(O)c3C(=O)[C@]1(OC)[C@H](O)C2)C(=O)C=C(N[C@H]1O[C@@H](C)[C@H](OC)[C@@H](O)[C@H]1OC)C4=O [Cmpd 12]
antibacterial activity (dilution susceptibility test) (E. coli 102 (ATCC 25922)): 32 | antibacterial activity (dilution susceptibility test) (E. coli 2269): 32 | antibacterial activity (dilution susceptibility test) (E. faecalis 846): ≦0.06 | antibacterial activity (dilution susceptibility test) (E. faecium 700221): 0.06 | antibacterial activity (dilution susceptibility test) (H. influenzae 1742): 4 | antibacterial activity (dilution susceptibility test) [1]: 8 | antibacterial activity (dilution susceptibility test) (K. pneumoniae 2239): 64 | antibacterial activity (dilution susceptibility test) (K. pneumoniae 2262): 64 | antibacterial activity (dilution susceptibility test) (M. catarrhalis 557): 0.12 | antibacterial activity (dilution susceptibility test) [2]: 32 | antibacterial activity (dilution susceptibility test) (S. agalactiae 2033): ≦0.06 | antibacterial activity (dilution susceptibility test) (S. aureus (ATCC 29213)): ≦0.06 | antibacterial activity (dilution susceptibility test) (S. aureus (ATCC 43300)): 0.008 | antibacterial activity (dilution susceptibility test) (S. aureus (ATCC 6538)): 0.008 | antibacterial activity (dilution susceptibility test) (S. aureus 1137): ≦0.06 | antibacterial activity (dilution susceptibility test) (S. aureus 1651): ≦0.06 | antibacterial activity (dilution susceptibility test) (S. aureus 1725): ≦0.06 | antibacterial activity (dilution susceptibility test) (S. aureus 2012): ≦0.06 | antibacterial activity (dilution susceptibility test) (S. aureus 2018): ≦0.06 | antibacterial activity (dilution susceptibility test) (S. aureus 2144): ≦0.06 | antibacterial activity (dilution susceptibility test) (S. epidermidis 1452): ≦0.06 | antibacterial activity (dilution susceptibility test) (S. epidermidis 1597): ≦0.06 | antibacterial activity (dilution susceptibility test) (S. marcescens 1635): 64 | antibacterial activity (dilution susceptibility test) (S. pneumoniae 376): ≦0.06 | antibacterial activity (dilution susceptibility test) (S. pneumoniae 933): ≦0.06 | antibacterial activity (dilution susceptibility test) (S. pneumoniae 940): ≦0.06 | antibacterial activity (dilution susceptibility test) (S. pneumoniae 975): ≦0.06 | antibacterial activity (dilution susceptibility test) (S. pyogenes 723): ≦0.06 | antibacterial activity (dilution susceptibility test) (S. saprophyticus 495): ≦0.06

MIC (MRSA 43300): 32 µg/mL (≈ 40.1 µM)
Molecule: CCOC(=O)CCC1(O)C(N[C@H]2O[C@@H](C)[C@H](OC)[C@@H](O)[C@H]2OC)=CC(=N)c2c1cc1c(c2O)C(=O)[C@]2(OC)[C@H](O)Cc3cc(C)c(C(=O)OC)c(O)c3[C@]2(O)C1=O (stereo partly drawn) [Example 59, (6R,6aS,14aR)-methyl 12-(3-ethoxy-3-oxopropyl)-1,6,8,12,14a-pentahydroxy-11-((2S,3R,4R,5R,6S)-4-hydroxy-3,5-dimethoxy-6-methyltetrahydro-2H-pyran-2-ylamino)-9-imino-6a-methoxy-3-methyl-7,14-dioxo-5,6,6a,7,9,12,14,14a-octahydrobenzo[a]tetracene-2-carboxylate]

Molecule: COC(=O)c1c(C)cc2c(c1O)[C@]1(O)C(=O)c3cc4c5c(nc(=O)oc5c3C(=O)[C@]1(OC)[C@H](O)C2)C=C(N[C@H]1O[C@@H](C)[C@H](OC)[C@@H](O)[C@H]1OC)C4=O [Example 60, (8aR,12R,12aS)-8a,12-Dihydroxy-5-((2S,3R,4R,5R,6S)-4-hydroxy-3,5-dimethoxy-6-methyltetrahydro-2H-pyran-2-ylamino)-12a-methoxy-8a,9,10,11,12,12a-hexahydro-(1-hydroxy-2-methoxycarbonyl-3-methylbenzo) [9,10-a]tetraceno[1,12-de][1,3]oxazine-2,6,8,13-tetraone]
MIC (MRSA 43300): 0.12 to 0.5 µg/mL (≈ 0.166 to 0.692 µM)

Molecule: CC(=O)NC[C@H]1CN(c2ccc(N3CCOCC3)c(F)c2)C(=O)O1 [Linezolid]
antibacterial activity (dilution susceptibility test) (E. coli 102 (ATCC 25922)): >64 | antibacterial activity (dilution susceptibility test) (E. coli 2269): >64 | antibacterial activity (dilution susceptibility test) (E. faecium 700221): 1 | antibacterial activity (dilution susceptibility test) (H. influenzae 1742): 8 | antibacterial activity (dilution susceptibility test) [1]: 16 | antibacterial activity (dilution susceptibility test) (K. pneumoniae 2239): >64 | antibacterial activity (dilution susceptibility test) (K. pneumoniae 2262): >64 | antibacterial activity (dilution susceptibility test) (M. catarrhalis 557): 8 | antibacterial activity (dilution susceptibility test) [2]: >64 | antibacterial activity (dilution susceptibility test) (S. aureus (ATCC 29213)): 4 | antibacterial activity (dilution susceptibility test) (S. aureus (ATCC 43300)): 1 | antibacterial activity (dilution susceptibility test) (S. aureus (ATCC 6538)): 0.5 | antibacterial activity (dilution susceptibility test) (S. aureus 1137): 4 | antibacterial activity (dilution susceptibility test) (S. aureus 1725): 4 | antibacterial activity (dilution susceptibility test) (S. aureus 2012): 1 | antibacterial activity (dilution susceptibility test) (S. marcescens 1635): >64 | antibacterial activity (dilution susceptibility test) (S. pneumoniae 376): 1 | antibacterial activity (dilution susceptibility test) (S. pneumoniae 940): 0.5 | antibacterial activity (dilution susceptibility test) (S. pneumoniae 975): 1

Molecule: C[C@@H](O)[C@H]1C(=O)N2C(C(=O)O)=C(S[C@@H]3CN[C@H](C(=O)N(C)C)C3)[C@H](C)[C@H]12 [Meropenem]
antibacterial activity (dilution susceptibility test) (E. coli 102 (ATCC 25922)): 0.03 | antibacterial activity (dilution susceptibility test) (E. coli 2269): 0.03 | antibacterial activity (dilution susceptibility test) (H. influenzae 1742): 0.06 | antibacterial activity (dilution susceptibility test) [1]: 0.03 | antibacterial activity (dilution susceptibility test) (K. pneumoniae 2239): 0.06 | antibacterial activity (dilution susceptibility test) (K. pneumoniae 2262): >4 | antibacterial activity (dilution susceptibility test) (M. catarrhalis 557): ≦0.04 | antibacterial activity (dilution susceptibility test) (S. aureus (ATCC 29213)): 0.12 | antibacterial activity (dilution susceptibility test) (S. aureus 1137): >4 | antibacterial activity (dilution susceptibility test) (S. aureus 1725): 0.25 | antibacterial activity (dilution susceptibility test) (S. aureus 2012): >4 | antibacterial activity (dilution susceptibility test) (S. marcescens 1635): 0.12 | antibacterial activity (dilution susceptibility test) (S. pneumoniae 376): 0.015 | antibacterial activity (dilution susceptibility test) (S. pneumoniae 940): 1 | antibacterial activity (dilution susceptibility test) (S. pneumoniae 975): 0.015

Molecule: CN[C@H](CC(C)C)C(=O)N[C@H]1C(=O)N[C@@H](CC(N)=O)C(=O)N[C@H]2C(=O)N[C@H]3C(=O)N[C@H](C(=O)N[C@H](C(=O)O)c4cc(O)cc(O)c4-c4cc3ccc4O)[C@H](O)c3ccc(c(Cl)c3)Oc3cc2cc(c3O[C@@H]2O[C@H](CO)[C@@H](O)[C@H](O)[C@H]2O[C@H]2C[C@](C)(N)[C@H](O)[C@H](C)O2)Oc2ccc(cc2Cl)[C@H]1O [Vancomycin]
antibacterial activity (dilution susceptibility test) (E. coli 102 (ATCC 25922)): >64 | antibacterial activity (dilution susceptibility test) (E. coli 2269): >64 | antibacterial activity (dilution susceptibility test) (E. faecalis 846): >64 | antibacterial activity (dilution susceptibility test) (E. faecium 700221): >64 | antibacterial activity (dilution susceptibility test) (H. influenzae 1742): >64 | antibacterial activity (dilution susceptibility test) [1]: 64 | antibacterial activity (dilution susceptibility test) (K. pneumoniae 2239): >64 | antibacterial activity (dilution susceptibility test) (K. pneumoniae 2262): >64 | antibacterial activity (dilution susceptibility test) (M. catarrhalis 557): >64 | antibacterial activity (dilution susceptibility test) [2]: >64 | antibacterial activity (dilution susceptibility test) (S. agalactiae 2033): 0.5 | antibacterial activity (dilution susceptibility test) (S. aureus (ATCC 29213)): 1 | antibacterial activity (dilution susceptibility test) (S. aureus (ATCC 43300)): 2 | antibacterial activity (dilution susceptibility test) (S. aureus (ATCC 6538)): 0.5 | antibacterial activity (dilution susceptibility test) (S. aureus 1137): 1 | antibacterial activity (dilution susceptibility test) (S. aureus 1651): 1 | antibacterial activity (dilution susceptibility test) (S. aureus 1725): 1 | antibacterial activity (dilution susceptibility test) (S. aureus 2012): 8 | antibacterial activity (dilution susceptibility test) (S. aureus 2018): 8 | antibacterial activity (dilution susceptibility test) (S. aureus 2144): 1 | antibacterial activity (dilution susceptibility test) (S. epidermidis 1452): 2 | antibacterial activity (dilution susceptibility test) (S. epidermidis 1597): 2 | antibacterial activity (dilution susceptibility test) (S. marcescens 1635): >64 | antibacterial activity (dilution susceptibility test) (S. pneumoniae 376): 0.5 | antibacterial activity (dilution susceptibility test) (S. pneumoniae 933): 0.5 | antibacterial activity (dilution susceptibility test) (S. pneumoniae 940): 0.25 | antibacterial activity (dilution susceptibility test) (S. pneumoniae 975): 0.5 | antibacterial activity (dilution susceptibility test) (S. pyogenes 723): 0.5 | antibacterial activity (dilution susceptibility test) (S. saprophyticus 495): 1

Molecule: (6R,6aS,14aR)-Methyl 1,6,8,12,14a-pentahydroxy-11-((2S,3R,4R,5R,6S)-4-hydroxy-3,5-dimethoxy-6-methyltetrahydro-2H-pyran-2-ylamino)-12-((5-(2-hydroxypropyl)furan-3-yl)methyl)-6a-methoxy-3-methyl-7,9,14-trioxo-5,6,6a,7,9,12,14,14a-octahydrobenzo[a]tetracene-2-carboxylate [Example 61]
MRSA 43300 MIC (MRSA 43300): 0.06 µg/mL
